# What was measured:
# [1] = Food intake of standard chow in lean mice; conditions: acute 10 mg/kg ip; first 3 hours after light-off; male C57BL/6J
# Method: Spontaneous intake of standard chow in mice was evaluated during the dark phase of the light-dark cycle. The amount of food eaten was measured at light-off, 3 hours and 13 hours after light-off.
# [2] = Depressive-like behaviors in the sucrose preference test; format: in vivo, mouse
# Method: Sucrose preference was tested in the home cages of the mice. A sucrose solution containing 2% of sucrose (D(+) saccharose) in tap water was poured in plastic graduated bottles (volume in each bottle, 45 ml). Identical bottles were filled with tap water. All the mice were first habituated to the bottles and to the sucrose solution. One bottle containing water and one bottle containing sucrose were placed in the hopper of each home cage. […] The mice had access to the solutions from the beginning of the dark phase, at the daily peak of food and water consumption (from 7 pm to 8.30 am). The sucrose preference test was performed seven days later. Water and sucrose solutions were presented as described for habituation except that mice had access to the solutions from 12 pm to 10 pm. At each time point, the bottles were weighed, 1 g corresponding to 1 ml. The intake volume was calculated by subtracting the initial bottle weight to the final bottle weight.
# 15 or 30 mg/kg or of vehicle (corn oil; 5 ml/kg) was studied in the sucrose preference test in 2-month-old male C57B1/6J mice (n=7-8 per group). Rimonabant was dissolved in a vehicle containing dimethylsulfoxide (DMSO, 2%), Tween80 (2%) in injectable NaCl 0.9%. Within the same study, the effect of repeated intraperitoneal injections of rimonabant at 10 mg/kg or of vehicle alone (10 ml/kg) was studied in the sucrose preference test in 2-month-old male C57B1/6J mice (n=8 per group).
# HeLa cells = assay: Genotoxicity: Histone H2AX phosphorylation; conditions: 100 μM; 24 hours
# Method: This study aimed at measuring Histone H2AX phosphorylation (γH2AX), which is the cellular response to DNA damage resulting in double-stranded DNA breaks. […] Etoposide at 3 μM was added as positive control of genotoxic effects. An immunofluorescence was performed on treated cells with a specific antibody against the phosphorylated histone gH2AX. Nuclei were stained with a fluorescent DNA intercaling agent. The stained cells were imaged and analyzed on the BD Pathway 855 imager®.
# [3] = Anxiety-like behaviors in the elevated plus maze; format: in vivo, mouse
# Text: The EPM apparatus was made of grey polyvinyl chloride and consisted of four elevated arms. The arms (height, 60 cm; length, 37 cm; width, 6 cm; each) were arranged in a cross-like disposition, with two opposite arms being enclosed by walls and the two other arms being open. A video camera placed on the top of the maze and connected to a tracking system allowed the automatic scoring of the locomotion of the mice in the maze. The light intensity of the maze was set at 45 lux in the open arms. One mouse was placed in the center of the EPM and was then free to explore the entire maze for 5 minutes. The time spent and the number of entries into the open arms and closed arms were measured. A decrease in the percentages of visits and/or of the time spent in open arms reflects an increase in anxiety levels.
# Rimonabant was dissolved in a vehicle containing DMSO, (2%), Tween80 (2%) in injectable NaCl 0.9%. Within the same study, the effect of intraperitoneal injection of rimonabant at 10 mg/kg or of vehicle alone (10 ml/kg) was studied in the EPM in 2-month-old male C57B1/6J mice (n=10 per group). The EPM test was performed 30 minutes after rimonabant injection.
# [4] = test system: primary culture of rat hepatocytes; assay: Biliary function: bile canaliculi in primary hepatocytes
# Method: (§1) The percentage of cytolysed hepatocytes over time was determined by time lapse imaging with a fluorescent cytolysis marker. The number of bile canaliculi after 48 hours of treatment was determined using a fluorescent bile salt analog.
# (§2) Primary rat hepatocytes from 10-12 weeks old Wistar rats were isolated using a two-step collagenase perfusion method. After 24 hours, cells were covered with a layer of Matrigel to perform a sandwich configuration culture. […] Cells were then stained using a fluorescent bile salt analog to measure the bile canaliculi network state and the Bsep pump activity. Acetaminophen (30 mM) and Cyclosporin A (1 μM) were added as positive controls of hepatotoxicity and biliary canaliculi loss, respectively.
# [5] = test system: primary culture of rat hepatocytes; assay: Hepatotoxicity in primary culture of hepatocytes; format: cell-based
# Method: as §1, §2
# [6] = test system: primary culture of rat cortical neurons; assay: Neurotoxicity in primary culture of cortical neurons; format: cell-based; conditions: from 30 μM
# Method: Cells were then followed by time-lapse imaging during 72 hours. The cells were then permeabilized. This procedure allowed to express the cytolysis over time as a percentage of the total number of cells per well.
# [7] = Beyer et al., 2010; Patel and Hillard, 2006; cited from earlier work
# [8] = Body weight of lean mice, repeated administrations
# Text: Mice were weighed prior to drug administration every day at the first week of treatment and then four days per week.
# [9] = therapeutic dose for the treatment of obesity; Zavatti et al., 2011; EPAR; cited from earlier work
# [10] = reference ID100 for rimonabant effects = 10 mg/kg
compound,measurement,setting,value
Cc1c(C(=O)NN2CCCCC2)nn(-c2ccc(Cl)cc2Cl)c1-c1ccc(Cl)cc1 [rimonabant],Food intake,[1],significantly decreased food intake
same,Sucrose consumption,"[2]; 10 mg/kg ip once a day, 28 days",reduced by half sucrose consumption
same,ID100: increase in depression-related behaviors,[2]; male mice,10 mg/kg
same,Effect: increase in depression-related behaviors (repeated administration),"[2]; male mice, rimonabant 10 mg/kg",Yes
same,N fold ID100: increase in depression-related behaviors,[2]; [10],1
same,Genotoxicity (DNA damage),HeLa cells,induced DNA damage
same,Time spent and number of visits in the open arms,"[3]; acute 10 mg/kg ip, 30 minutes after injection",markedly reduced the time spent and the number of visits in the open arms
same,ID100: increase in anxiety-like behaviors,[3]; male mice,10 mg/kg
same,Effect: increase in anxiety-like behaviors (acute administration),"[3]; male mice, rimonabant 10 mg/kg",Yes
same,N fold ID100: increase in anxiety-like behaviors,[3]; [10],1
same,Effect on bile canaliculi,[4]; from 10 μM,suppressed bile canaliculi
same,Concentration decreasing the number of canaliculi,"[4]; tested 0.1 to 100 μM, 48 hours",≥ 1 µM
same,Hepatocyte death,[5]; from 10 μM,100%
same,Concentration increasing hepatocyte cell death,"[5]; tested 0.1 to 100 μM, 48 hours",≥ 3 µM
same,Neural cell death,[6],80%
same,"Doses with similar effects (anhedonia, anxiety-like behaviors) in rodents",[7],≥ 1 mg/kg
same,Body weight,"[8]; 10 mg/kg ip once a day, 40 days",decreased body weight
same,ID100: inhibition of food-intake and body weight,[8]; male mice,10 mg/kg
same,Effect: inhibition of food-intake and body weight (repeated administration),"[8]; male mice, rimonabant 10 mg/kg",Yes
same,N fold ID100: inhibition of food-intake and body weight,[8]; [10],1
same,"Doses inducing scratching, hyperactivity followed by sedation and convulsions",[9],6 times the therapeutic dose

# — patent US12583884B2, “3beta-(benzyloxy)-17alpha-methyl-pregn-5-en-20-one for use in the treatment of cognitive disorders” (AELIS FARMA, priority 2018, dated 2026)
